Data on 50 compounds can be found in ChEMBL document CHEMBL1149249 (J Med Chem, 2004).

Experiment [1] concerns the target Adenosine receptor A2a (Rattus norvegicus, UniProt P30543). Kind of experiment: Displacement of [3H]ZM241385 from adenosine A2A receptor in rat brain membrane. It counts as cell membranes.
The target of experiment [2] is T1, Adenosine receptor A1 (Rattus norvegicus, UniProt P25099).
T1 sequence (P25099 whole entry): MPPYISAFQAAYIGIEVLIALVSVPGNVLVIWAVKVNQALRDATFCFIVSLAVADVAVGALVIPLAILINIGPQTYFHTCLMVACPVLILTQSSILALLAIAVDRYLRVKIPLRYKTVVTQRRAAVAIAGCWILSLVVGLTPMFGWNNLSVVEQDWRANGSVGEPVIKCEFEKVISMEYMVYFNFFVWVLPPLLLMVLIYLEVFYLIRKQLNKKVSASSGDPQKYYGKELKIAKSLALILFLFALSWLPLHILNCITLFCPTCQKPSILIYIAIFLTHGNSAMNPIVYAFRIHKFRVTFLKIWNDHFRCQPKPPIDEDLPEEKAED
The experiment is described as follows: Displacement of [3h]DPCPX from adenosine A receptor in rat cerebral cortex membrane.

Molecules are shown by their SMILES. A value given as a limit tells only on which side of the number the result lay.

Chain of Adenosine receptor A2a (P30543 whole entry): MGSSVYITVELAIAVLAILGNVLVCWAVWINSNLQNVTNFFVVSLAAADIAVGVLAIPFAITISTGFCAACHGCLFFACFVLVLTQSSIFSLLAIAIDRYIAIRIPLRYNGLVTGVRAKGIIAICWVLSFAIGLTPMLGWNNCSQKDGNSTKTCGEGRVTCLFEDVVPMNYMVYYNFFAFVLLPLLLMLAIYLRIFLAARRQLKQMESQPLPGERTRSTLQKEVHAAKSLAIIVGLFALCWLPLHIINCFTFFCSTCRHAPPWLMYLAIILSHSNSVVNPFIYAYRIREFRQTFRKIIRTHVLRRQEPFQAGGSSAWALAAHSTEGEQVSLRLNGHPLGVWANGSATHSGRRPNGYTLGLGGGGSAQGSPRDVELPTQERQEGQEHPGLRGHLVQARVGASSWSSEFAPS

A word on the Ki: it is a dissociation constant, usually derived from enzyme kinetics or from competition with a known ligand. High values mean lower affinity, low ones higher affinity. Turning to `Nc1nc(N2CCN3CCC[C@H]3C2)cc2nc(-c3ccco3)nn12`, the Ki is 110 nM (antagonist) in experiment [1] and greater than 500 nM in experiment [2].
As for `Nc1nc(N2CCN3C[C@H](CNc4ncccn4)CC[C@H]3C2)nc2nc(-c3ccco3)nn12`, the figures for the Ki in experiment [1] and in experiment [2] were 45 nM (antagonist) and greater than 1000 nM, respectively.
Consider `Nc1nc(N2CCN3C[C@@H](CN(Cc4ccco4)Cc4ccco4)CC[C@H]3C2)nc2nc(-c3ccco3)nn12`, for which the values for the Ki in experiment [1] and in experiment [2] were 47 nM (antagonist) and greater than 1000 nM, respectively.
As for `Nc1nc(NC[C@@H]2CC[C@@H]3CN(Cc4ccc(F)cc4F)CCN3C2)cc2nc(-c3ccco3)nn12`, the figures for the Ki in experiment [1] and in experiment [2] were 230 nM (antagonist) and greater than 1000 nM, respectively.
For `Nc1nc(N2CCN3C[C@@H](CNCc4ccc(F)cc4F)CC[C@H]3C2)nc2nc(-c3ccco3)nn12` the same measures were 2 nM (antagonist) and 1100 nM.
In the case of `Nc1cc(N2CCN3CCC[C@H]3C2)nc2nc(-c3ccco3)nn12`, the figures for the Ki in experiment [1] and in experiment [2] were 170 nM (antagonist) and greater than 500 nM, respectively.
In the case of `Nc1nc(N2CCN3C[C@H](CN(Cc4cccnc4)Cc4cccnc4)CC[C@H]3C2)nc2nc(-c3ccco3)nn12`, the Ki in experiment [1] is 4 nM (antagonist); in experiment [2], 7800 nM.
In the case of `Nc1nc(N2CCN3C[C@@H](CNc4ncccn4)CC[C@H]3C2)cc2nc(-c3ccco3)nn12`, the inhibition constant Ki in experiment [1] is 47 nM (antagonist); in experiment [2], greater than 1000 nM.
For `Nc1nc(N2CCN3C[C@H](COc4ccc5ccccc5n4)CC[C@H]3C2)nc2nc(-c3ccco3)nn12`, in that order: 7 nM (antagonist) and greater than 1000 nM.
Consider `NC[C@@H]1CC[C@H]2CN(c3nc(N)n4nc(-c5ccco5)nc4n3)CCN2C1`, for which the Ki in experiment [1] is 2 nM (antagonist); in experiment [2] it was 3500 nM.
Regarding `Nc1nc(N2CCN3C[C@@H](CN(Cc4ccc(F)cc4F)Cc4ccc(F)cc4F)CC[C@H]3C2)nc2nc(-c3ccco3)nn12`, the Ki in experiment [1] was greater than 500 nM; in experiment [2], greater than 1000 nM.
For `Nc1nc(N2C[C@@H]3CCCN3C[C@@H]2Cc2ccccc2)nc2nc(-c3ccco3)nn12` the same measures were 490 nM (antagonist) and greater than 1000 nM.
For `Nc1nc(N2CCN3C[C@@H](CN(Cc4ccccn4)Cc4ccccn4)CC[C@H]3C2)nc2nc(-c3ccco3)nn12`, in that order: 9 nM (antagonist) and greater than 500 nM.
For `Nc1nc(N2CCN3C[C@@H](CN(Cc4cccnc4)Cc4cccnc4)CC[C@H]3C2)nc2nc(-c3ccco3)nn12` the same measures were 2 nM (antagonist) and greater than 1000 nM.
For the compound `Cc1nn(C)c(Cl)c1CN(Cc1c(C)nn(C)c1Cl)C[C@H]1CC[C@H]2CN(c3nc(N)n4nc(-c5ccco5)nc4n3)CCN2C1`, the Ki in experiment [1] is 180 nM (antagonist); in experiment [2] it was greater than 1000 nM.
For `NC[C@@H]1CC[C@H]2CN(c3cc(N)n4nc(-c5ccco5)nc4n3)CCN2C1` the same measures were 370 nM (antagonist) and greater than 500 nM.
On to `NC[C@H]1CC[C@H]2CN(c3cc(N)n4nc(-c5ccco5)nc4n3)CCN2C1`, for which the figures for the Ki in experiment [1] and in experiment [2] were 110 nM (antagonist) and greater than 500 nM, respectively.
On to `Nc1nc(N2CCN3C[C@@H](CNCc4cccnc4)CC[C@H]3C2)nc2nc(-c3ccco3)nn12`, for which the Ki in experiment [1] was 51 nM (antagonist); in experiment [2], greater than 500 nM.
In the case of `Nc1nc(N2CCNCC2)nc2nc(-c3ccco3)nn12`, the Ki in experiment [1] is greater than 5000 nM.
As for `Nc1nc(N2CCN3CCC[C@@H]3C2)cc2nc(-c3ccco3)nn12`, the Ki in experiment [1] was 63 nM (antagonist); in experiment [2], 1100 nM.
For `NC[C@H]1CC[C@H]2CN(c3cc4nc(-c5ccco5)nn4c(N)n3)CCN2C1` the same measures were 56 nM (antagonist) and greater than 500 nM.
For `Cc1nn(C)c(Cl)c1CNC[C@H]1CC[C@H]2CN(c3nc(N)n4nc(-c5ccco5)nc4n3)CCN2C1` the same measures were 30 nM (antagonist) and greater than 500 nM.
On to `Nc1nc(N2CCN3C[C@H](COc4cccc(F)c4)CC[C@H]3C2)nc2nc(-c3ccco3)nn12` (mixture of isomers), for which the Ki in experiment [1] is 53 nM (antagonist); in experiment [2], 960 nM (antagonist).
For the compound `Nc1cc(N2CCN3[C@@H](COc4ccc5[nH]ccc5c4)CCC[C@H]3C2)nc2nc(-c3ccco3)nn12` (racemic), the Ki in experiment [1] is 76 nM (antagonist); in experiment [2], greater than 1000 nM.
For `Nc1nc(N2CCN3C[C@@H](Cn4cncn4)CC[C@H]3C2)nc2nc(-c3ccco3)nn12` (racemic) the same measures were 4 nM (antagonist) and greater than 500 nM.
For `Nc1nc(N2CCN3C[C@@H](CN(Cc4ccncc4)Cc4ccncc4)CC[C@H]3C2)nc2nc(-c3ccco3)nn12` (racemic) the same measures were 3 nM (antagonist) and 6000 nM.
For `Nc1nc(N2CCN3C[C@H](COc4ccncc4)CC[C@H]3C2)nc2nc(-c3ccco3)nn12` (racemic) the same measures were 81 nM (antagonist) and greater than 1000 nM.
Regarding `Nc1cc(N2CCN3[C@@H](COc4ccc5cccnc5c4)CCC[C@H]3C2)nc2nc(-c3ccco3)nn12` (racemic), the Ki in experiment [1] was 830 nM (antagonist); in experiment [2] it was greater than 500 nM.
For `Nc1nc(N2CCN3C[C@@H](CNc4ncccn4)CC[C@H]3C2)nc2nc(-c3ccco3)nn12` (racemic), in that order: 9 nM (antagonist) and 1500 nM.
Turning to `Nc1nc(N2CCN3C[C@@H](Cn4cnnn4)CC[C@H]3C2)nc2nc(-c3ccco3)nn12` (racemic), the Ki in experiment [1] was 14 nM (antagonist); in experiment [2], greater than 500 nM.
For `Nc1nc(N2CCN3C[C@@H](COc4ccc(F)cc4F)CC[C@H]3C2)nc2nc(-c3ccco3)nn12` (racemic), in that order: 70 nM (antagonist) and greater than 500 nM.
For `Nc1cc(N2CCN3[C@@H](COc4cccnc4)CCC[C@H]3C2)nc2nc(-c3ccco3)nn12` (racemic) the same measures were 80 nM (antagonist) and greater than 500 nM.
For `Nc1nc(N2CCN3C[C@@H](COc4cccc5cnccc45)CC[C@H]3C2)nc2nc(-c3ccco3)nn12` (racemic), in that order: 6 nM (antagonist) and 3500 nM.
Take `Nc1nc(N2CCN3C[C@H](COc4ncnc5ccccc45)CC[C@H]3C2)nc2nc(-c3ccco3)nn12` (racemic): the Ki was 37 nM (antagonist) in experiment [1] and greater than 1000 nM in experiment [2].
As to `Nc1nc(N2CCN3C[C@@H](COc4cc5ccccc5cn4)CC[C@H]3C2)nc2nc(-c3ccco3)nn12` (racemic), the Ki in experiment [1] is 36 nM (antagonist); in experiment [2] it was greater than 1000 nM.
For the compound `Nc1nc(N2CCN3C[C@H](COc4cccc5cnccc45)CC[C@H]3C2)nc2nc(-c3ccco3)nn12` (racemic), the Ki is on record as 73 nM (antagonist) in experiment [1] and 210 nM (antagonist) in experiment [2].
For `Nc1nc(N2CCN3C[C@@H](COc4ncnc5ccccc45)CC[C@H]3C2)nc2nc(-c3ccco3)nn12` (racemic), in that order: 19 nM (antagonist) and greater than 500 nM.
Take `Nc1nc(N2CCN3C[C@H](COc4cc5ccccc5cn4)CC[C@H]3C2)nc2nc(-c3ccco3)nn12` (racemic): the results for the Ki in experiment [1] and in experiment [2] were 130 nM (antagonist) and 710 nM (antagonist), respectively.
For the compound `Nc1nc(N2CCN3C[C@@H](COc4cccnc4)CC[C@H]3C2)nc2nc(-c3ccco3)nn12` (racemic), the Ki in experiment [1] is 0.3 nM (antagonist); in experiment [2], 1400 nM.
For `Nc1nc(NC[C@@H]2CC[C@@H]3CN(Cc4ccc(F)cc4F)CCN3C2)nc2nc(-c3ccco3)nn12` (racemic) the same measures were 130 nM (antagonist) and greater than 500 nM.
With `Nc1nc(NC[C@H]2CC[C@@H]3CN(c4ncccn4)CCN3C2)nc2nc(-c3ccco3)nn12` (racemic), the Ki in experiment [1] is 230 nM (antagonist); in experiment [2], greater than 1000 nM.
As to `Cn1nc(C(F)(F)F)c(CN2CCN3C[C@@H](CNc4nc(N)n5nc(-c6ccco6)nc5n4)CC[C@@H]3C2)c1Cl` (racemic), the Ki in experiment [1] is greater than 500 nM; in experiment [2] it was greater than 1000 nM.
For `COC(=O)c1nc(Cl)c(N2CCN3C[C@H](CNc4nc(N)n5nc(-c6ccco6)nc5n4)CC[C@@H]3C2)nc1N` (racemic), in that order: 34 nM (antagonist) and greater than 1000 nM.
For `Nc1nc(N2CCN3C[C@@H](CNCc4ccncc4)CC[C@H]3C2)nc2nc(-c3ccco3)nn12` (racemic) the same measures were 36 nM (antagonist) and greater than 500 nM.
For `Nc1nc(NC[C@@H]2CC[C@@H]3CN(c4cc(F)cc(F)c4)CCN3C2)nc2nc(-c3ccco3)nn12` (racemic) the same measures were 49 nM (antagonist) and greater than 500 nM.
For `Nc1nc(N2CCN3C[C@@H](COc4ncnc5[nH]ncc45)CC[C@@H]3C2)nc2nc(-c3ccco3)nn12` (racemic), the values for the Ki in experiment [1] and in experiment [2] were 5 nM (antagonist) and greater than 500 nM, respectively.
For `Nc1nc(N2CCN3C[C@@H](Cn4ccnc4)CC[C@H]3C2)nc2nc(-c3ccco3)nn12` (racemic), in that order: 0.3 nM (antagonist) and 1200 nM.
For `Nc1nc(N2CCN3C[C@@H](COc4ccncc4)CC[C@H]3C2)nc2nc(-c3ccco3)nn12` (racemic), in that order: 25 nM (antagonist) and greater than 1000 nM.
For `Nc1nc(N2CCN3C[C@H](COc4ccccn4)CC[C@H]3C2)nc2nc(-c3ccco3)nn12` (racemic), the results for the Ki in experiment [1] and in experiment [2] were 41 nM (antagonist) and greater than 500 nM, respectively.
For `Nc1nc(N2CCN3C[C@@H](COc4ccccn4)CC[C@H]3C2)nc2nc(-c3ccco3)nn12` (racemic), in that order: 20 nM (antagonist) and greater than 1000 nM.
